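The compound was tested at five concentrations on cells cultured in 96-well plates, with a 48-hour exposure period. GI50: concentration for 50% inhibition of growth. TGI denotes the concentration required for complete inhibition of growth.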
Experiments:
Assay in all cases: inhibition of tumour cell growth, NCI panel, 48 h
[1] = test system: HOP-92 NSCLC
[2] = test system: TK-10 renal
[3] = test system: SF-268 CNS
[4] = test system: NCI-H226 lung
[5] = test system: BT-549 breast
[6] = test system: RPMI-8226 leukemia
[7] = test system: SK-MEL-5 melanoma
[8] = test system: T-47D breast
[9] = test system: SK-OV-3 ovarian
[10] = test system: UO-31 renal
[11] = test system: U251 CNS
[12] = test system: ACHN renal
[13] = test system: NCI/ADR-RES ovarian
[14] = test system: SW-620 colon
[15] = test system: HCT-15 colon
[16] = test system: NCI-H460 lung
[17] = test system: HCT-116 colon
[18] = test system: OVCAR-3 ovarian
[19] = test system: KM12 colon
[20] = test system: CAKI-1 renal
[21] = test system: OVCAR-8 ovarian
[22] = test system: MDA-MB-435
[23] = test system: DU-145 prostate
[24] = test system: UACC-62 melanoma
[25] = test system: MCF7 breast
[26] = test system: UACC-257 melanoma
[27] = test system: LOX IMVI melanoma
[28] = test system: RXF 393 renal
[29] = test system: A549 NSCLC
[30] = test system: NCI-H23 lung
[31] = test system: CCRF-CEM leukemia
[32] = test system: HOP-62 NSCLC
[33] = test system: EKVX NSCLC
[34] = test system: OVCAR-4 ovarian
[35] = test system: SNB-19 CNS
[36] = test system: PC-3 prostate
[37] = test system: M14 melanoma
[38] = test system: HS 578T breast
[39] = test system: 786-0 renal
[40] = test system: NCI-H522 lung
[41] = test system: MOLT-4 leukemia
[42] = test system: IGROV1 ovarian
[43] = test system: SK-MEL-2 melanoma
[44] = test system: HT29 colon
[45] = test system: MDA-MB-231 breast
[46] = test system: MALME-3M melanoma
[47] = test system: HL-60(TB) leukemia
[48] = test system: SF-295 CNS
[49] = test system: OVCAR-5 ovarian
[50] = test system: SK-MEL-28 melanoma
[51] = test system: COLO 205 colon
[52] = test system: SF-539 CNS
[53] = test system: A498 renal
[54] = test system: SNB-75 CNS
[55] = test system: K-562 leukemia
[56] = test system: SR leukemia
[57] = test system: SN12C renal
[58] = test system: HCC-2998 colon

SMILES: Clc1ccc(C2=Nn3c(COc4ccccc4Cl)nnc3SC2)c(Cl)c1
- GI50 [1]: 39 µM
- TGI [1]: > 100 µM
- GI50 [2]: 26.5 µM
- TGI [2]: 95.4 µM
- GI50 [3]: 31.8 µM
- TGI [3]: > 100 µM
- GI50 [4]: 14.6 µM
- TGI [4]: 41.6 µM
- GI50 [5]: 18.8 µM
- TGI [5]: 54.2 µM
- GI50 [6]: 44.7 µM
- TGI [6]: > 100 µM
- GI50 [7]: 12.6 µM
- TGI [7]: 28.5 µM
- GI50 [8]: 14 µM
- TGI [8]: 51.5 µM
- GI50 [9]: 28.1 µM
- TGI [9]: 86.3 µM
- GI50 [10]: 31.2 µM
- TGI [10]: > 100 µM
- GI50 [11]: 14.2 µM
- TGI [11]: 45.8 µM
- GI50 [12]: 17.3 µM
- TGI [12]: 51.6 µM
- GI50 [13]: > 100 µM
- TGI [13]: > 100 µM
- GI50 [14]: 18.5 µM
- TGI [14]: > 100 µM
- GI50 [15]: 54.6 µM
- TGI [15]: > 100 µM
- GI50 [16]: 24.2 µM
- TGI [16]: > 100 µM
- GI50 [17]: 14.7 µM
- TGI [17]: 27.9 µM
- GI50 [18]: 12.9 µM
- TGI [18]: 29.2 µM
- GI50 [19]: 16.9 µM
- TGI [19]: 34 µM
- GI50 [20]: 25.9 µM
- TGI [20]: 76.7 µM
- GI50 [21]: 29.6 µM
- TGI [21]: > 100 µM
- GI50 [22]: 20.1 µM
- TGI [22]: 84.5 µM
- GI50 [23]: 19.8 µM
- TGI [23]: 86.1 µM
- GI50 [24]: 15.1 µM
- TGI [24]: 35.5 µM
- GI50 [25]: 11 µM
- TGI [25]: > 100 µM
- GI50 [26]: 20.8 µM
- TGI [26]: 60.9 µM
- GI50 [27]: 15.2 µM
- TGI [27]: 28.7 µM
- GI50 [28]: 28.6 µM
- TGI [28]: > 100 µM
- GI50 [29]: 23.6 µM
- TGI [29]: > 100 µM
- GI50 [30]: 15.5 µM
- TGI [30]: 39.6 µM
- GI50 [31]: 30.6 µM
- TGI [31]: > 100 µM
- GI50 [32]: 24.3 µM
- TGI [32]: 65 µM
- GI50 [33]: 23.7 µM
- TGI [33]: 80.8 µM
- GI50 [34]: 26.9 µM
- TGI [34]: > 100 µM
- GI50 [35]: 30.4 µM
- TGI [35]: > 100 µM
- GI50 [36]: 37.2 µM
- TGI [36]: > 100 µM
- GI50 [37]: 16.4 µM
- TGI [37]: 41.4 µM
- GI50 [38]: 15 µM
- TGI [38]: 69 µM
- GI50 [39]: 25.6 µM
- TGI [39]: 65.4 µM
- GI50 [40]: 22.6 µM
- TGI [40]: 80.3 µM
- GI50 [41]: 22.3 µM
- TGI [41]: > 100 µM
- GI50 [42]: 33.6 µM
- TGI [42]: > 100 µM
- GI50 [43]: 25.1 µM
- TGI [43]: 57.4 µM
- GI50 [44]: 14 µM
- TGI [44]: 27 µM
- GI50 [45]: 18.5 µM
- TGI [45]: 48.6 µM
- GI50 [46]: 20.3 µM
- TGI [46]: 70.6 µM
- GI50 [47]: 19.4 µM
- TGI [47]: 75.4 µM
- GI50 [48]: 10.3 µM
- TGI [48]: 87 µM
- GI50 [49]: 35.1 µM
- TGI [49]: 87.1 µM
- GI50 [50]: 17 µM
- TGI [50]: 53.9 µM
- GI50 [51]: 14.7 µM
- TGI [51]: 33.5 µM

SMILES: N=C1C(c2nc3ccccc3s2)=C(O)CN1c1cc(C(F)(F)F)ccc1Cl
- GI50 [1]: 7.69 µM
- TGI [1]: 98.1 µM
- GI50 [2]: 52.1 µM
- TGI [2]: > 100 µM
- GI50 [3]: 28.8 µM
- TGI [3]: > 100 µM
- GI50 [4]: 2.75 µM
- TGI [4]: 28.5 µM
- GI50 [5]: 43.4 µM
- TGI [5]: > 100 µM
- GI50 [6]: 7.46 µM
- TGI [6]: 53 µM
- GI50 [7]: 6.61 µM
- TGI [7]: 46.7 µM
- GI50 [8]: 48.1 µM
- TGI [8]: > 100 µM
- GI50 [9]: 51.4 µM
- TGI [9]: > 100 µM
- GI50 [10]: 2.63 µM
- TGI [10]: 6.18 µM
- GI50 [11]: 9.55 µM
- TGI [11]: > 100 µM
- GI50 [12]: 21.2 µM
- TGI [12]: > 100 µM
- GI50 [13]: 7.45 µM
- TGI [13]: 37.6 µM
- GI50 [14]: 36.4 µM
- TGI [14]: > 100 µM
- GI50 [15]: 3.44 µM
- TGI [15]: > 100 µM
- GI50 [16]: 13.3 µM
- TGI [16]: 77.9 µM
- GI50 [52]: 10 µM
- TGI [52]: 52.9 µM
- GI50 [17]: 8.59 µM
- TGI [17]: 62.2 µM
- GI50 [18]: 4.47 µM
- TGI [18]: 40.4 µM
- GI50 [53]: 24.6 µM
- TGI [53]: 97.9 µM
- GI50 [19]: 20.5 µM
- TGI [19]: > 100 µM
- GI50 [20]: 4.7 µM
- TGI [20]: 40.4 µM
- GI50 [21]: 32.9 µM
- TGI [21]: > 100 µM
- GI50 [22]: 4.14 µM
- TGI [22]: 36.1 µM
- GI50 [23]: 25.8 µM
- TGI [23]: > 100 µM
- GI50 [24]: 5.06 µM
- TGI [24]: 42.7 µM
- GI50 [25]: 16.9 µM
- TGI [25]: 92.1 µM
- GI50 [26]: 7.65 µM
- TGI [26]: 46.1 µM
- GI50 [27]: 22.7 µM
- TGI [27]: > 100 µM
- GI50 [28]: 18 µM
- TGI [28]: > 100 µM
- GI50 [29]: 21.1 µM
- TGI [29]: > 100 µM
- GI50 [30]: 26.3 µM
- TGI [30]: > 100 µM
- GI50 [31]: 21.3 µM
- TGI [31]: > 100 µM
- GI50 [32]: 18.4 µM
- TGI [32]: > 100 µM
- GI50 [33]: 62.7 µM
- TGI [33]: > 100 µM
- GI50 [34]: > 100 µM
- TGI [34]: > 100 µM
- GI50 [35]: 60.6 µM
- TGI [35]: > 100 µM
- GI50 [54]: 24.1 µM
- TGI [54]: > 100 µM
- GI50 [36]: 5.82 µM
- TGI [36]: 49.9 µM
- GI50 [37]: 3.21 µM
- TGI [37]: 11.1 µM
- GI50 [38]: 35.7 µM
- TGI [38]: > 100 µM
- GI50 [39]: 38.1 µM
- TGI [39]: > 100 µM
- GI50 [40]: 9.49 µM
- TGI [40]: > 100 µM
- GI50 [41]: 16.3 µM
- TGI [41]: > 100 µM
- GI50 [42]: 9.64 µM
- TGI [42]: > 100 µM
- GI50 [43]: 29.8 µM
- TGI [43]: > 100 µM
- GI50 [55]: 3.61 µM
- TGI [55]: 21.3 µM
- GI50 [44]: 25.8 µM
- TGI [44]: > 100 µM
- GI50 [45]: 12.1 µM
- TGI [45]: 95.7 µM
- GI50 [47]: 5.75 µM
- TGI [47]: 30.2 µM
- GI50 [56]: 1.81 µM
- TGI [56]: 4.91 µM
- GI50 [48]: 16.2 µM
- TGI [48]: > 100 µM
- GI50 [49]: 70.2 µM
- TGI [49]: > 100 µM
- GI50 [57]: 15.5 µM
- TGI [57]: 69.6 µM
- GI50 [50]: 69 µM
- TGI [50]: > 100 µM
- GI50 [51]: 30.8 µM
- TGI [51]: > 100 µM
- GI50 [58]: 2.73 µM
- TGI [58]: 16.3 µM

— PubChem BioAssay (NCI)
